The values below come from the SangsterLogP compilation.

One may read the logP as the decadic logarithm of the partition coefficient of the neutral form, usually between octanol and water. With `CCN1C(=O)C(=O)c2ccccc2C1=O`, the logP is 1.13.
On to `CC(C)CN1C(=O)C(=O)c2ccccc2C1=O`, for which the logP is 2.08.
As to `CCOC(=O)c1cccc2c1C(=O)C(=O)N(CC)C2=O`, the logP was determined as 1.31.
`O=C1C(=O)N(c2ccccc2)C(=O)c2ccccc21` came in with a logP of 1.14. This logP and that of the molecule before are within 0.2 log units of each other.
Regarding `CCN1C(=O)C(=O)c2cc3ccccc3cc2C1=O`, the logP was found to be 2.46.
`CCN1C(=O)C(=O)c2cccc(OC)c2C1=O` registered a logP of 0.94.
In the case of `CCN(CC)C(=O)c1cccc2c1C(=O)C(=O)N(CC)C2=O`, the logP is 0.78.
For `CCC(C)N1C(=O)C(=O)c2ccccc2C1=O` (configuration not stated) the value was 2.15.
Regarding `CCNC(=O)c1cccc2c1C(=O)C(=O)N(CC)C2=O`, the logP was determined as 0.3.
The molecule `CCN1C(=O)C(=O)c2ccc(OC)cc2C1=O` showed a logP of 1.49.
For the molecule `CCN1C(=O)C(=O)c2cc(OC)c(OC)cc2C1=O`, the lipophilicity (logP) came out at 1.31.
`CCCCN1C(=O)C(=O)c2ccccc2C1=O`: the logP is 2.18.
In turn, `CCCN1C(=O)C(=O)c2ccccc2C1=O` displayed a logP of 1.6.
In the case of `CCN1C(=O)C(=O)c2c(Cl)cccc2C1=O`, the lipophilicity (logP) is 1.43.
Molecule `CCN1C(=O)C(=O)c2c(C(N)=O)cccc2C1=O` returned a logP of -0.5.
Regarding `CCN1C(=O)C(=O)c2ccc(Cl)cc2C1=O`, the logP is 1.79.
The result for `CCN1C(=O)C(=O)c2c(OC)cccc2C1=O` reads 0.9; that for `CC(C)N1C(=O)C(=O)c2ccccc2C1=O`, 1.6; that for `CN1C(=O)C(=O)c2ccccc2C1=O`, 0.6.
`CCN1C(=O)C(=O)c2c(cccc2[N+](=O)[O-])C1=O`: the logP was 0.82.
As to `CCN1C(=O)C(=O)c2c(C#N)cccc2C1=O`, the logP amounted to 0.41.
Take `CCN1C(=O)C(=O)c2c(OC)cc(OC)cc2C1=O`: the logP stood at 1.23.
